The text below walks through data of US10596270B2, “Anti-folate receptor antibody conjugates, compositions comprising anti-folate receptor antibody conjugates, and methods of making and using anti-folate receptor antibody conjugates” (Sutro Biopharma, Inc., priority 2017, dated 2020).

One series deals with Igrov1 cells. In words: In vitro cell killing (ADCs, free drugs), Igrov1 cells. The series is classed as cell-based.
A further series concerns A549 cells. Nature of the series: In vitro cell killing (ADCs, free drugs), FolRα-negative A549 cells. The format is cell-based.
The subject of a further series is cell line tested. Nature of the series: Free drug in vitro cytotoxicity, various cell lines. The series is classed as cell-based. To be noted: in words.
Series [1] is described as follows: Pharmacokinetics of free drugs in Sprague-Dawley rats. The series is classed as in vivo, rat. To be noted: rat, blood, female Sprague-Dawley rats, IV bolus; for AUC(0-t): read-out: AUC0-last ± SE; for half-life: read-out: Terminal t1/2 (converted); for Vd: read-out: VSS. As to the method: (§1) Blood samples were collected at […], 1, 2, 8, 24, 32, 48, and 72 hour post-dose. Levels of free drug (I) and (II) were measured by LC-MS/MS and non-compartmental pharmacokinetic analysis was conducted using Phoenix WinNonlin Version 6.4 (Pharsight Corporation). The PK of free drug (I) could not be estimated due to the fact that concentrations of (I) increased from 2 to 8 hours and were undetectable thereafter.

The nature of series [2]: Body weight of rats given free drugs. The format is in vivo, rat. The following applies: free drug (I) 0.4 and 1 mg/kg; free drug (II) 0.4 mg/kg; IV bolus. The protocol:
as §1, with “To assess the pharmacokinetic profile of free drug (I), female Sprague-Dawley rats (mean body weight 250 g) were given either a 0.4 mg/kg or 1 mg/kg dose by IV bolus administration (N=three animal per dose level) via an indwelling jugular vein catheter. Blood” for “Blood”

Series [3] relates to MES-SA/MX2 cells (PgP over-expressing). Nature of the series: Free drug cell killing on PgP over-expressing MES-SA/MX2 cells with or without PgP inhibitor GF120918. The format is cell-based. The following applies: for change in cell killing EC50 in the presence and absence of PgP inhibitor GF120918: GF120918 5 μM. An excerpt: (§2) To evaluate if free drug (I) is specifically a substrate of P-glycoprotein (PgP), which is responsible for cisplatin-resistance in some of the ovarian cancer cell lines (Stordal et al. 2012. PLoS One 7(7)), the free drug cell killing activities were investigated on PgP over-expressing MES-SA/MX2 cell line and the parental MES-SA cells. The cell killing activity of free drug (I), free drug (II) and a control free drug (MMAE, designated “III”) on the PgP-overexpressing MES-SA/MX2 cells were reduced by different levels compared to their activity on parental MES-SA cells. The MES-SA/MX2 cells were also treated with PgP inhibitor GF120918 (5 μM) to further investigate if the observed cell killing reduction is contributed by the presence of PgP on the cell surface.

In another series the test system is P-glycoprotein (PgP). Described as above. The series is classed as cell-based. To be noted: human, MES-SA/MX2 cells (PgP over-expressing).
From the text: as §2

A further series has as its system MES-SA cells. In words: Free drug cell killing on parental MES-SA cells. The series is classed as cell-based. To be noted: MEA-SA (parental) cells, No GF120918.
From the text: as §2

The next series has as its target T1, human FOLR1-HIS (Homo sapiens, UniProt P15328).
T1 construct: HIS
In words: Biacore kinetics (surface plasmon resonance). The series is classed as binding. To be noted: humanized 6D1 (2060) antibodies, Table 9. As to the method: Anti-Fc polyclonal antibodies were immobilized onto a CM5 chip (GE Life Sciences) using amine coupling chemistry (from Amine Coupling Kit, GE Life Sciences). The immobilization steps were carried out at a flow rate of 25 μL/min in 1×HBS-EP+ buffer (GE Life Sciences; 10× Stock diluted before use). The sensor surfaces were activated for 7 min with a mixture of N-hydroxysuccinimide (NHS, 0.05 M) and 1-ethyl-3-(3-dimethylaminopropyl)-carbodiimide (EDC, 0.2 M). The anti-Fc polyclonal antibodies were injected over all 4 flow cells at a concentration of […]/mL in 10 mM sodium acetate, pH 4.5, for 7 min. Ethanolamine (1 M, pH 8.5) was injected for 7 min to block any remaining activated groups. An average of 12,000 response units (RU) of capture antibody was immobilized on each flow cell.
Off-rate and kinetic binding experiments were performed at 25° C. using 1×HBS-EP+ buffer. Test and control antibodies were injected over the anti-Fc surface at concentrations of 5-10 μg/mL for 12 seconds at a flow rate of 10 μL/min on flow cells 2, 3 and 4, followed by a buffer wash for 30 seconds at the same flow rate. Kinetic characterization of antibody samples was carried out with a single concentration of antigen (for off-rate ranking) or a 1:2 dilution series of antigen (for kinetic characterization) and 1 injection of 0 nM antigen. […] Between each ligand capture and analyte binding cycle, regeneration was carried out using 2 injections of 10 mM glycine pH 2.0 for 30 seconds at 30 μL/min, followed by a 30 second buffer wash step.
The data were fit with the Biacore T200 Evaluation software, using a 1:1 Langmuir binding model. KD (affinity, nM) was determined as a ratio of the kinetic rate constants calculated from the fits of the association and dissociation phases.
A general note: Surface plasmon resonance follows binding to a sensor surface in real time, without labels.

Series [4] deals with FOLR1-positive Igrov1 cells. In words: Secondary antibody cell killing assay, Igrov1 cells. The series is classed as cell-based. The following applies: Table 9; for EC50: read-out: Igrov 2° Antibody Cell Killing, Nb-SC239 EC50.
From the text: FOLR1-positive KB cells were obtained from ATCC, and FOLR1-positive Igrov1 cells were obtained from NIH. The cells were maintained in Ham's F-12: high glucose DMEM (50:50) (Corning, Cellgro-Mediatech) supplemented with 10% heat-inactivated fetal bovine serum (Corning, Cellgro-Mediatech, Manassas, Va.), 1% Penicillin/Streptomycin (Corning, Cellgro-Mediatech, Manassas, Va.) and 2 mmol/L-glutamax (Thermo Fisher Scientific, Waltham, Mass.). Adherent cells were washed twice with calcium and magnesium-free Hanks Balanced Salt Solution (HBSS), harvested with HYQ® TASE™ (Hyclone; Thermo Fisher Scientific, Waltham, Mass.) and counted by the Vi-CELL Cell Viability Analyzers (Beckman Coulter, Indianapolis, Ind.). A total of 625 cells were seeded in each well of a 384-well flat bottom white polystyrene plate. Lead antibodies were formulated at 4-fold starting concentration in the cell culture medium and filtered through MultiScreenHTS 96-Well Filter Plates (Millipore; Billerica, Mass.). […] Assay plates were cultured at 37° C. in a CO2 incubator for 120 hrs before assay. For cell viability measurement, 30 μL of Cell Titer-Glo® reagent (Promega Corp. Madison, Wis.) was added into each well, and plates were processed as per product instructions. Relative luminescence was measured on an ENVISION® plate reader (Perkin-Elmer; Waltham, Mass.). Relative luminescence readings were converted to percent viability using untreated cells as controls. Data was fitted with non-linear regression analysis, using a log(inhibitor) vs. response-variable slope, 4 parameter fit with GraphPad Prism (GraphPad v 5.0, Software; San Diego, Calif.). Data was expressed as relative cell viability (ATP content) % vs. dose of antibody.
The mark [5] stands for this setting: MEA-SA/MX2 cells (PgP over-expressing), No GF120918.
Where [6] appears, read: MEA-SA/MX2 cells, with PgP inhibitor GF120918 (5 μM).

Where two headings read alike, the source gives them in different places. Square brackets hold non-standard residues; d marks the D form. Peptide text beside a SMILES is read from it. * marks the point of attachment. Dolaproine = CO[C@@H]([C@@H]1CCCN1)[C@@H](C)C(=O)O; Dil = CC[C@H](C)[C@H](NC)[C@@H](CC(=O)O)OC; X1 = C[C@@H](N*)[C@@H](O)c1ccccc1; NMeV = CN[C@H](C(=O)O)C(C)C

T1 sequence (P15328 25-234): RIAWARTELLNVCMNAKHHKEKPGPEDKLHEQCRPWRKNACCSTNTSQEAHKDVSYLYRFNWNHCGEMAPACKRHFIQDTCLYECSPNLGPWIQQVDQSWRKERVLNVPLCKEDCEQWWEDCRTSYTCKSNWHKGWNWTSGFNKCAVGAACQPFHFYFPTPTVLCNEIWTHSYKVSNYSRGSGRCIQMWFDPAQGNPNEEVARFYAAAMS
From the text for A549 cells: Cytotoxic activities of the two ADC molecules were compared in the presence of excess un-conjugated “naked” antibody as competitior, on cells that were positive FolRα expression (Igrov1 and OVCAR3) and on cells that were negative for FolRα expression (A549).

The EC50 is the midpoint of the concentration-response curve. Usually AUC(0-inf) stands for total exposure, with the tail of the curve extrapolated. High values mean more exposure, low ones less exposure. One may read the Cmax as the maximum level reached in the sampled fluid or tissue. A word on the clearance: it is the volume of plasma or blood freed of the substance per unit of time. Low readings indicate a low capacity for elimination, high ones a high capacity for elimination. Turning to `COc1cc2cc(c1Cl)N(C)C(=O)C[C@H](OC(=O)[C@H](C)N(C)C(=O)CCC(C)(C)S)[C@]1(C)O[C@H]1[C@H](C)[C@@H]1C[C@@](O)(NC(=O)O1)[C@H](OC)/C=C/C=C(/C)C2` [free drug (II)], the EC50 in the series on Igrov1 cells (Homo sapiens, IGROV-1) turned out to be 4.9 nM; in the series on A549 cells (Homo sapiens, A549) it was 7.7 nM; with P-glycoprotein (PgP) (with GF120918 (5 μM), MEA-SA/MX2 cells, with PgP inhibitor GF120918 (5 μM)), 1.7 nM; with P-glycoprotein (PgP) (setting [5]), 28 nM; in the series with MES-SA cells (Homo sapiens, MES-SA), 1.9 nM. Also, the Span in the series with Igrov1 cells (Igrov1 cells, Table 26) came to 90%; in the series on A549 cells (A549 cells, Table 26, NK = No Killing) it was 81%; in [3] (setting [5]), 100%; in series [3] (setting [6]), 98%; with MES-SA cells, 100%. Moreover, in the series with cell line tested, the “cytotoxic activity of released free drugs” value is “comparable cytotoxic activity”. The AUC(0-inf) came to 129 ng·h/mL in series [1] (dose level 0.1 mg/kg) and 242 ng·h/mL in series [1] (dose level 0.4 mg/kg). The values for the C0 in series [1] (dose level 0.1 mg/kg) and in [1] (dose level 0.4 mg/kg) were 10.7 ng/mL and 62.5 ng/mL, respectively. The Cmax in [1] (dose level 0.1 mg/kg) was found to be 9.31 ± 2.19 ng/mL; in series [1] (dose level 0.4 mg/kg), 53.3 ± 19 ng/mL. In addition, the clearance in [1] (dose level 0.1 mg/kg) is 12.9 mL/min/kg; in series [1] (dose level 0.4 mg/kg), 27.7 mL/min/kg. In addition, the values for the AUC(0-t) in [1] (dose level 0.1 mg/kg) and in [1] (dose level 0.4 mg/kg) were 96.9 ± 11 ng·h/mL and 211 ± 70 ng·h/mL, respectively. Besides, the results for the half-life in series [1] (dose level 0.1 mg/kg) and in series [1] (dose level 0.4 mg/kg) were 22.4 h and 44.3 h, respectively. The Vd was determined as 15.8 L/kg in series [1] (dose level 0.1 mg/kg) and 44.1 L/kg in series [1] (dose level 0.4 mg/kg). Further, in series [2], the “body weight of the animals” value is recorded as “progressive body weight loss”. Besides, the “change in cell killing EC50 in the presence and absence of PgP inhibitor GF120918” value in series [3] came to 17 fold.

For the molecule `CC[C@H](C)[C@@H]([C@@H](CC(=O)N1CCC[C@H]1[C@H](OC)[C@@H](C)C(=O)N[C@H](C)[C@@H](O)c1ccccc1)OC)N(C)C(=O)[C@@H](NC(=O)[C@@H](NC)C(C)C)C(C)C` [free drug (III), MMAE] (H-[NMeV]V[Dil][Dolaproine]-X1), the “change in cell killing EC50 in the presence and absence of PgP inhibitor GF120918” value in series [3] is given as 111 fold. Also, the EC50 in [3] (setting [5]) was 111 nM; in series [3] (setting [6]), 1 nM; in the series with MES-SA cells it was 0.75 nM. Further, the Span in series [3] (setting [5]) is 100%; in series [3] (setting [6]), 99%; with MES-SA cells, 100%.

B1: SRP2060-E10: affinity-matured humanized 6D1; VH SEQ ID NO 363; VL H6D1-LC4 SEQ ID NO 368 (antibody, V domains shown)
VH: EVQLLESGGGLVQPGGSLRLSCAFSGFSLSTFGMGVGWVRQAPGKGLEWVSHIWWDDDKYYHPALKGRFTISKDNSKNTVYLQMNSLRAEDTAVYYCGRNHFPHYYGSSHWYFNVWGQGTTVTVSS
VL: EIVMTQSPATLSLSPGERATLSCKASQDINSYLSWYQQKPGQAPRLLIYRANRLVDGIPARFSGSGSGTDYTLTISSLEPEDFAVYYCLQYDEFPYTFGGGTKVEIK
modifications: Synthetic SRP2060-E10, VH; Synthetic H6D1-LC4, VL
In the series with human FOLR1-HIS, B1 had a Biacore kinetics ka of 582000 M⁻¹ s⁻¹ and a Biacore kinetics kd of 0.0012 s⁻¹. In [4], the “Igrov 2° Antibody Cell Killing, Nb-SC239 span” value (shortened to “Igrov 2° Antibody Cell Killing”) is on record as 68% and the EC50 is 0.061 nM.

B2: SRP2060-B01 (antibody, V domains shown)
VH: EVQLLESGGGLVQPGGSLRLSCALSGFSLSTFGMGVGWVRQATGKGLEWVSHIWWDDDKYYHPALKGRFTISKDNSKNTVHLQMNSLRAEDTAVYYCGRNHFPHYYGSSHWYFNVWGQGTTVTVSS
VL: DIQMTQSPSTLSASVGDRVTITCKASQDINSYLSWYQQKPGKAPKLLIYRANRLVDGVPSRFSGSGSGTEFTLTISSLQPDDFATYYCLQYDEFPYTFGGGTKVEIK
With B2, in the series with human FOLR1-HIS, the Biacore kinetics ka was 561000 M⁻¹ s⁻¹ and the Biacore kinetics kd is 0.00147 s⁻¹. In addition, in [4], the “Igrov 2° Antibody Cell Killing” value is listed as 76% and the EC50 amounted to 0.045 nM.

B3: SRP2060-A06 (antibody, V domains shown)
VH: EVQLLESGGGLVQPGGSLRLSCAFSGFSLSTFGMGVGWVRQAPGKGLEWVGHIWWDDDKYYYPALKGRFTISKDNSKNTVYLQMNSLRAEDTAVYYCGRNHFPHYYGSSHWYFDVWGQGTTVTVSS
VL: DIQMTQSPSTLSASVGDRVTITCKASQDINSYLSWYQQKPGKAPKLLIYRANRLVDGVPSRFSGSGSGTEFTLTISSLQPDDFATYYCLQYDEFPYTFGGGTKVEIK
As to B3, in the series with human FOLR1-HIS, the Biacore kinetics ka is 547000 M⁻¹ s⁻¹ and the Biacore kinetics kd came to 0.00729 s⁻¹. For the same molecule, in series [4], the “Igrov 2° Antibody Cell Killing” value is 66% and the EC50 is 0.013 nM.

B4: SRP2060-E05: affinity-matured humanized 6D1; VH SEQ ID NO 364; VL H6D1-LC4 SEQ ID NO 368 (antibody, V domains shown)
VH: EVQLLESGGGLVQPGGSLRLSCAFSGFSLSTFGMGVGWVRQAPGKGLEWVSHIWWDDDKYYHPALKGRFTVSKDNSKNTVYLQMNSLRAEDTAVYYCGRNHFPHYYGSSHWYFNVWGQGTTVTVSS
VL: EIVMTQSPATLSLSPGERATLSCKASQDINSYLSWYQQKPGQAPRLLIYRANRLVDGIPARFSGSGSGTDYTLTISSLEPEDFAVYYCLQYDEFPYTFGGGTKVEIK
modifications: Synthetic SRP2060-E05, VH; Synthetic H6D1-LC4, VL
In the series with human FOLR1-HIS, B4 registered a Biacore kinetics ka of 541000 M⁻¹ s⁻¹ and a Biacore kinetics kd of 0.00158 s⁻¹. In addition, in [4], the “Igrov 2° Antibody Cell Killing” value turned out to be 71% and the EC50 was determined as 0.22 nM.
